# Experimental data from US20250319067A1, “Improved Pharmacokinetics of Tryptamine Prodrugs” (Reunion Neuroscience, Inc., priority 2023, published 2025).
# System: healthy females
# Experiment: Phase 1 FIH single ascending dose study: safety and tolerability (AEs)
# Assay type: in vivo, human
# Method: The study was a double-blind, randomized, placebo-controlled Phase 1 single ascending dose study in up to 6 cohorts in healthy females. Eligibility was assessed during a screening period of up to 28 days prior to enrollment. For the treatment period, subjects were admitted to the clinical research unit (CRU) one day prior to the dosing (Day −1). On Day 1, all subjects will received the assigned SC dose of RE104 HCl or placebo in a fed state (after domiciling overnight and consuming a planned evening meal on Day −1 and morning meal on Day 1 while at the CRU). Subjects were allowed to select snacks from a planned menu from 4 hours following dosing. Subjects were discharged from the clinic on Day 2 (−24 hours post-dose) after all required study procedures were completed and if deemed medically fit. Subjects returned to the clinic on Day 10 (±2 days) for a follow up visit.
# Six (6) cohorts were enrolled in the study. Six (6) single doses were tested in 6 cohorts (Cohort 1 to Cohort 6) of 8 healthy female subjects (6 active and 2 placebo), as indicated in FIG. 1 and Table 3.
# The starting dose was 5.5 mg RE104 HCl. Sentinels were used in all cohorts. Within each cohort, 2 subjects were treated first: 1 subject received RE104 HCl and 1 subject received placebo.
# The study was monitored by a safety review committee (SRC). […] Safety, tolerability, and available PK data were assessed by the SRC between each cohort before ascending to the next dose level (Table 3). After each cohort dosing was complete, the SRC met to discuss dose escalation. Escalation to the next higher dose level occurred only after evaluation of the safety and tolerability data up to and including at least 24 hours post-dose of all evaluable subjects in the previous dose cohort. Available PK results were requested for determination of dose escalation, as deemed necessary.
# Dosing took place at a time point agreed to with the investigational pharmacy and acceptable to the investigator. RE104 HCl or placebo were administered as a SC injection in the upper arm. Subjects received RE104 HCl or placebo in a fed state. The time of administration of RE104 HCl or placebo was be recorded in the eCRF. The regimen used is outlined in Table 3.
# Within each cohort, 2 sentinel subjects were treated first: 1 subject received RE104 HCl and 1 subject received placebo. […] All drug administration was be done under direct medical supervision. Study subjects were overseen during the potentially psychoactive study drug period by professionals trained to monitor psychedelic experiences.
structure (smiles),measurement,setting,value
CC(C)N(CCc1c[nH]c2cccc(OC(=O)CCCC(=O)O)c12)C(C)C [RE104],AE Abdominal pain,"RE104 5.5 mg, n = 6",0 n (%)
same,AE Agitation,"RE104 5.5 mg, n = 6",0 n (%)
same,AE Diarrhea,"RE104 5.5 mg, n = 6",0 n (%)
same,AE Distress,"RE104 5.5 mg, n = 6",0 n (%)
same,AE Fatigue,"RE104 5.5 mg, n = 6",0 n (%)
same,AE Feeling hot,"RE104 5.5 mg, n = 6",0 n (%)
same,AE Headache,"RE104 5.5 mg, n = 6",0 n (%)
same,AE Heart rate increased,"RE104 5.5 mg, n = 6",0 n (%)
same,AE Hyperhidrosis,"RE104 5.5 mg, n = 6",0 n (%)
same,AE Muscle twitching,"RE104 5.5 mg, n = 6",0 n (%)
same,AE Musculoskeletal injury,"RE104 5.5 mg, n = 6",0 n (%)
same,AE Nausea,"RE104 5.5 mg, n = 6",1 (16.7) n (%)
same,AE Restlessness,"RE104 5.5 mg, n = 6",0 n (%)
same,AE Sinus tachycardia,"RE104 5.5 mg, n = 6",0 n (%)
same,AE Thirst,"RE104 5.5 mg, n = 6",0 n (%)
same,AE Tremor,"RE104 5.5 mg, n = 6",0 n (%)
same,AE Vomiting,"RE104 5.5 mg, n = 6",1 (16.7) n (%)
same,AEs leading to,"RE104 5.5 mg, n = 6",0 n (%)
same,Any AE,"RE104 5.5 mg, n = 6",2 (33.3) n (%)
same,Any SAE,"RE104 5.5 mg, n = 6",0 n (%)
same,Severe AEs,"RE104 5.5 mg, n = 6",0 n (%)
same,AE Abdominal pain,"RE104 11 mg, n = 6",0 n (%)
same,AE Agitation,"RE104 11 mg, n = 6",0 n (%)
same,AE Diarrhea,"RE104 11 mg, n = 6",0 n (%)
same,AE Distress,"RE104 11 mg, n = 6",0 n (%)
same,AE Fatigue,"RE104 11 mg, n = 6",0 n (%)
same,AE Feeling hot,"RE104 11 mg, n = 6",0 n (%)
same,AE Headache,"RE104 11 mg, n = 6",1 (16.7) n (%)
same,AE Heart rate increased,"RE104 11 mg, n = 6",0 n (%)
same,AE Hyperhidrosis,"RE104 11 mg, n = 6",0 n (%)
same,AE Muscle twitching,"RE104 11 mg, n = 6",0 n (%)
same,AE Musculoskeletal injury,"RE104 11 mg, n = 6",0 n (%)
same,AE Nausea,"RE104 11 mg, n = 6",2 (33.3) n (%)
same,AE Restlessness,"RE104 11 mg, n = 6",0 n (%)
same,AE Sinus tachycardia,"RE104 11 mg, n = 6",0 n (%)
same,AE Thirst,"RE104 11 mg, n = 6",0 n (%)
same,AE Tremor,"RE104 11 mg, n = 6",0 n (%)
same,AE Vomiting,"RE104 11 mg, n = 6",0 n (%)
same,AEs leading to,"RE104 11 mg, n = 6",0 n (%)
same,Any AE,"RE104 11 mg, n = 6",2 (33.3) n (%)
same,Any SAE,"RE104 11 mg, n = 6",0 n (%)
same,Severe AEs,"RE104 11 mg, n = 6",0 n (%)
same,AE Abdominal pain,"RE104 22 mg, n = 6",0 n (%)
same,AE Agitation,"RE104 22 mg, n = 6",0 n (%)
same,AE Diarrhea,"RE104 22 mg, n = 6",1 (16.7) n (%)
same,AE Distress,"RE104 22 mg, n = 6",0 n (%)
same,AE Fatigue,"RE104 22 mg, n = 6",0 n (%)
same,AE Feeling hot,"RE104 22 mg, n = 6",1 (16.7) n (%)
same,AE Headache,"RE104 22 mg, n = 6",0 n (%)
same,AE Heart rate increased,"RE104 22 mg, n = 6",1 (16.7) n (%)
same,AE Hyperhidrosis,"RE104 22 mg, n = 6",1 (16.7) n (%)
same,AE Muscle twitching,"RE104 22 mg, n = 6",0 n (%)
same,AE Musculoskeletal injury,"RE104 22 mg, n = 6",0 n (%)
same,AE Nausea,"RE104 22 mg, n = 6",0 n (%)
same,AE Restlessness,"RE104 22 mg, n = 6",0 n (%)
same,AE Sinus tachycardia,"RE104 22 mg, n = 6",0 n (%)
same,AE Thirst,"RE104 22 mg, n = 6",0 n (%)
same,AE Tremor,"RE104 22 mg, n = 6",0 n (%)
same,AE Vomiting,"RE104 22 mg, n = 6",0 n (%)
same,AEs leading to,"RE104 22 mg, n = 6",0 n (%)
same,Any AE,"RE104 22 mg, n = 6",2 (33.3) n (%)
same,Any SAE,"RE104 22 mg, n = 6",0 n (%)
same,Severe AEs,"RE104 22 mg, n = 6",0 n (%)
same,AE Abdominal pain,"RE104 33 mg, n = 9",2 (22.2) n (%)
same,AE Agitation,"RE104 33 mg, n = 9",0 n (%)
same,AE Diarrhea,"RE104 33 mg, n = 9",0 n (%)
same,AE Distress,"RE104 33 mg, n = 9",0 n (%)
same,AE Fatigue,"RE104 33 mg, n = 9",2 (22.2) n (%)
same,AE Feeling hot,"RE104 33 mg, n = 9",0 n (%)
same,AE Headache,"RE104 33 mg, n = 9",1 (11.1) n (%)
same,AE Heart rate increased,"RE104 33 mg, n = 9",0 n (%)
same,AE Hyperhidrosis,"RE104 33 mg, n = 9",0 n (%)
same,AE Muscle twitching,"RE104 33 mg, n = 9",3 (33.3) n (%)
same,AE Musculoskeletal injury,"RE104 33 mg, n = 9",1 (11.1) n (%)
same,AE Nausea,"RE104 33 mg, n = 9",3 (33.3) n (%)
same,AE Restlessness,"RE104 33 mg, n = 9",3 (33.3) n (%)
same,AE Sinus tachycardia,"RE104 33 mg, n = 9",4 (44.4) n (%)
same,AE Thirst,"RE104 33 mg, n = 9",0 n (%)
same,AE Tremor,"RE104 33 mg, n = 9",1 (11.1) n (%)
same,AE Vomiting,"RE104 33 mg, n = 9",0 n (%)
same,AEs leading to,"RE104 33 mg, n = 9",0 n (%)
same,Any AE,"RE104 33 mg, n = 9",8 (88.9) n (%)
same,Any SAE,"RE104 33 mg, n = 9",0 n (%)
same,Severe AEs,"RE104 33 mg, n = 9",0 n (%)
same,AE Abdominal pain,"RE104 38 mg, n = 6",0 n (%)
same,AE Agitation,"RE104 38 mg, n = 6",2 (33.3) n (%)
same,AE Diarrhea,"RE104 38 mg, n = 6",2 (33.3) n (%)
same,AE Distress,"RE104 38 mg, n = 6",1 (16.7) n (%)
same,AE Fatigue,"RE104 38 mg, n = 6",0 n (%)
same,AE Feeling hot,"RE104 38 mg, n = 6",0 n (%)
same,AE Headache,"RE104 38 mg, n = 6",4 (66.7) n (%)
same,AE Heart rate increased,"RE104 38 mg, n = 6",0 n (%)
same,AE Hyperhidrosis,"RE104 38 mg, n = 6",1 (16.7) n (%)
same,AE Muscle twitching,"RE104 38 mg, n = 6",0 n (%)
same,AE Musculoskeletal injury,"RE104 38 mg, n = 6",0 n (%)
same,AE Nausea,"RE104 38 mg, n = 6",2 (33.3) n (%)
same,AE Restlessness,"RE104 38 mg, n = 6",3 (50.0) n (%)
same,AE Sinus tachycardia,"RE104 38 mg, n = 6",3 (50.0) n (%)
same,AE Thirst,"RE104 38 mg, n = 6",2 (33.3) n (%)
same,AE Tremor,"RE104 38 mg, n = 6",0 n (%)
same,AE Vomiting,"RE104 38 mg, n = 6",0 n (%)
same,AEs leading to,"RE104 38 mg, n = 6",0 n (%)
same,Any AE,"RE104 38 mg, n = 6",5 (83.3) n (%)
same,Any SAE,"RE104 38 mg, n = 6",0 n (%)
same,Severe AEs,"RE104 38 mg, n = 6",1 (16.7) n (%)
same,AE Abdominal pain,"RE104 44 mg, n = 3",0 n (%)
same,AE Agitation,"RE104 44 mg, n = 3",2 n (%)
same,AE Diarrhea,"RE104 44 mg, n = 3",0 n (%)
same,AE Distress,"RE104 44 mg, n = 3",1 n (%)
same,AE Fatigue,"RE104 44 mg, n = 3",0 n (%)
same,AE Feeling hot,"RE104 44 mg, n = 3",0 n (%)
same,AE Headache,"RE104 44 mg, n = 3",0 n (%)
same,AE Heart rate increased,"RE104 44 mg, n = 3",0 n (%)
same,AE Hyperhidrosis,"RE104 44 mg, n = 3",1 n (%)
same,AE Muscle twitching,"RE104 44 mg, n = 3",0 n (%)
same,AE Musculoskeletal injury,"RE104 44 mg, n = 3",0 n (%)
same,AE Nausea,"RE104 44 mg, n = 3",2 n (%)
same,AE Restlessness,"RE104 44 mg, n = 3",1 n (%)
same,AE Sinus tachycardia,"RE104 44 mg, n = 3",2 n (%)
same,AE Thirst,"RE104 44 mg, n = 3",0 n (%)
same,AE Tremor,"RE104 44 mg, n = 3",1 n (%)
same,AE Vomiting,"RE104 44 mg, n = 3",1 n (%)
same,AEs leading to,"RE104 44 mg, n = 3",0 n (%)
same,Any AE,"RE104 44 mg, n = 3",3 n (%)
same,Any SAE,"RE104 44 mg, n = 3",0 n (%)
same,Severe AEs,"RE104 44 mg, n = 3",1 n (%)
same,"sinus tachycardia, maximum recorded value",asymptomatic,115 beats per minute
